According to patent publication US20040136926A1, “Intra-oral drug delivery system” (priority 2002, published 2004):
Where a SMILES comes first, the peptide text is derived from it. Bridges are numbered along the chain shown (N, C = ends). Roman numbers before positions name the chains, in order. Where no end group is shown, it is not given here. [ ]: non-standard residue; d: D form. pS = N[C@@H](COP(=O)(O)O)C(=O)O

Assays:
Candida albicans = experiment: Fungicidal activity of hybrid adsorbed HAP beads, fluorescent probes (membrane damage); format: cell-based; details: hybrid adsorbed HAP surface, as a function of time
Description: (§1) The fungicidal and bactericidal activity of the hybrid adsorbed HAP beads was determined using fluorescent probes. The increase in fluorescence as a function of microbial membrane damage was monitored. […] Candida albicans and Actinobacillus actinomycetemcomitans were used as the fungal and bacterial organisms, respectively.

[1] = Peptide adsorption to hydroxyapatite (HAP) beads; format: binding; details: for K × 10^−5 (affinity coefficient) / N × 10^6 (adsorption parameter): adsorption to HAP, C/Q = 1/KN + C/N
Source text: The extent to which the hybrid molecule gets adsorbed was examined using hydroxyapatite (HAP) beads as described previously (Raj, et al., supra, 1992).

[2] = system: Actinobacillus actinomycetemcomitans; experiment: Bactericidal activity of hybrid adsorbed HAP beads, fluorescent probes (membrane damage); format: cell-based; details: hybrid adsorbed HAP surface, as a function of time
Description: as §1

[3] = literature (Raj, et al., 1992); cited from earlier work

Row | Molecule | Microbial membrane damage (increase in fluorescence) vs control HAP (Candida albicans) | K × 10^−5 (affinity coefficient) [1] [liter mol^−1] | N × 10^6 (adsorption parameter) [1] [mol m^−2] | Affinity for HAP (in words) ([1]; hydroxyapatite beads) | Microbial membrane damage (increase in fluorescence) vs control HAP [2] | Affinity for HAP compared with whole statherin [3]
1 | CC[C@H](C)[C@@H]1NC(=O)[C@H](CCCNC(=N)N)NC(=O)[C@@H](NC(=O)[C@H](CC(C)C)NC(=O)[C@@H](N)CCCNC(=N)N)CSSC[C@@H](C(=O)N[C@@H](CCCNC(=N)N)C(=O)OC[C@H](NC(=O)[C@H](CC(=O)O)NC(=O)[C@H](CC(=O)O)NC(=O)[C@H](CC(=O)O)NC(=O)[C@H](CCC(=O)O)NC(=O)[C@@H](N)CCC(=O)O)C(=O)O)NC(=O)[C@H](C(C)C)NC(=O)[C@H](CCCNC(=N)N)NC(=O)[C@H]([C@@H](C)CC)NC(=O)[C@H](C(C)C)NC(=O)[C@H](C(C)C)NC1=O [Hybrid] (I: H-RLCRIVVIRVCR / II: H-EEDDDS-OH; disulfide I:3-I:11; ester I:C-II:6; N-terminus assumed) | significantly caused microbial membrane damage | 10.8 ± 1.8 | 1.6 ± 0.2 | quite comparable to salivary statherin | significantly caused microbial membrane damage | –
2 | D-D-D-E-E-K-F-L-R-R-I-G-R-F-G (DDDEEKFLRRIGRFG) [SNA15, Analog of SN15] | – | – | – | – | – | higher affinity for HAP than the whole molecule
3 | D-Sp-Sp-E-E-K-F-L-R-R-I-G-R-F-G (D[pS][pS]EEKFLRRIGRFG; UniProt P02808 20-34, looked up, fragment) [SN15, Amino-terminal 15-residue fragment of statherin] | – | – | – | – | – | higher affinity for HAP than the whole molecule
4 | D-Sp-Sp-EEKFLRRIGRFGYGYGPYQPVPEQPLYPQPYQPQYQQYTF (D[pS][pS]EEKFLRRIGRFGYGYGPYQPVPEQPLYPQPYQPQYQQYTF; UniProt P02808 20-62, looked up) [Statherin, Salivary phosphorylated polypeptide, reference compound] | – | 11.1 ± 2.0 | 0.9 ± 0.05 | – | – | –
